System: infected lesion (Candida albicans, left thigh)
Assay type: in vivo, mice (C57/BL)
Details: Candida-inoculated mice, day 8; GMCSF intramuscularly 3 days before PET; FDG 2 mCi/Kg via tail vein, PET 3 hours later; p<0.05 vs pre-GMCSF
Procedure: Candida albicans was suspended in saline to achieve a concentration of 2.5×10^9 yeast cells/ml. Three mice (C57/BL, Jackson Laboratories, Bar Harbor, Me.) were injected intramuscularly in the left thigh with 5×10^8 Candida albicans cells suspended in 0.2 ml of saline. The right thigh was injected with 0.2 ml of saline as a control.
Imaging of the animals was performed on days 5 and 8 after Candida inoculation. […] GMCSF was administered intramuscularly immediately after the first PET images were obtained (3 days prior to the second PET imaging).

GMCSF: granulocyte-macrophage colony stimulating factor, immune modulator; FDA approved under the tradename Leukine
FDG uptake within the infected lesion, post-GMCSF: 8150 nCi/cc

— US20080260650A1, “Methods of Detection and Therapy of Inflamed Tissues Using Immune Modulation” (THE GENERAL HOSPITAL Corporation, priority 2004, published 2008)
